Measured values taken from patent US12545677B2, “Compounds useful as factor XIa inhibitors” (JANSSEN PHARMACEUTICA NV, priority 2020, dated 2026).
pIC50: −log10 of the molar value.

Target: human plasma kallikrein (Homo sapiens, UniProt P03952)
Experiment: Kallikrein inhibition assay utilizing quenched AMC peptide substrate
Format: biochemical
Conditions: read-out: Plasma kallikrein (PK) IC50
Method: Biological Example 2: Kallikrein Inhibition Assay
Utilizing Quenched AMC Peptide Substrate
A fluorescence intensity-based assay was used to monitor inhibition of human plasma kallikrein. The peptide substrate, Z-Gly-Pro-Arg-AMC (Purchased from Bachem; Catalog #1-1150) was chosen based on its relatively low KM for kallikrein which enables running the assay at lower substrate concentrations to control background fluorescence. The kinetic parameters for this substrate were determined by fitting titration data to the Michaelis-Menten equation yielding a KM=40 μM, kcat=0.76 s^−1, and kcat/KM=18932 M^−1s^−1.
Kallikrein FLINT assay was used with the following Z-Gly-Pro-Arg-AMC assay buffer: 50 mM Tris, pH 7.5, 100 mM NaCl, 5 mM CaCl2, 0.1 mg/mL BSA, 0.03% CHAPS. Assay buffer was prepared by mixing all ingredients fresh. 2× Z-Gly-Pro-Arg-AMC peptide substrate was prepared by diluting 10 mM stock into 1× assay buffer for a 100 μM working concentration (50 μM final concentration). The 2× kallikrein stock solution was prepared by diluting 14.76 μM stock in 1× assay buffer for a 4 nM working stock solution (2 nM final concentration).
Test compound(s) were run in an 11-point, 3-fold serial dilution with a final top compound concentration of 1 μM. Final DMSO in assay: 2% DMSO. 2 nM kallikrein and test compound were pre-incubated for 30 minutes and 50 μM substrate was then added to initiate the reaction. The assay was linear using 2 nM kallikrein greater than 30 minutes. More specifically, the assay was run as follows: • 100 nL of 1 mM test compound was dispensed into a black 384-well non-binding Greiner BioOne 784900 plate for 10 μM final concentration with 1% DMSO final concentration; • 5 μL of 1× assay buffer was dispensed to columns 24 (low control) and 5 μL 2× human kallikrein enzyme solution was dispensed to columns 1-23 (column 23 high control); • the plate was centrifuged with a cover plate at 500 rpm for 1 min • the plate was pre-incubated for 30 minutes at room temperature with plate covered; • 5 μL of 2× Z-Gly-Pro-Arg-AMC peptide substrate was dispensed into the entire plate, columns 1-24; • the plate was centrifuged with a “cover” plate at 500 rpm for 1 min; • the plate was read kinetically monitoring fluorescence intensity on the BMG PHERAStar at room temperature, using fluorescence module F1 340 mm/440 mm.
Percent inhibition (IC50) curves were generated per compound tested, and data was analyzed using a 4-parameter logistic fit using GeneData Screener. […]

Chain of human plasma kallikrein (P03952 391-638 limits assumed): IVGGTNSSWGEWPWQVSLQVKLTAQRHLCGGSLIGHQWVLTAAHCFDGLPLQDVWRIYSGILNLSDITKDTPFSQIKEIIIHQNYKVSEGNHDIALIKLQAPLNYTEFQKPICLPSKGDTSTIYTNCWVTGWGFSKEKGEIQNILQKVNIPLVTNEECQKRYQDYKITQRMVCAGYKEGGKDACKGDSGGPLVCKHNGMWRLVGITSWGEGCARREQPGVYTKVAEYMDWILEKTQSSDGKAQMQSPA
Chain of human plasma kallikrein (P03952 20-390 partner limits assumed): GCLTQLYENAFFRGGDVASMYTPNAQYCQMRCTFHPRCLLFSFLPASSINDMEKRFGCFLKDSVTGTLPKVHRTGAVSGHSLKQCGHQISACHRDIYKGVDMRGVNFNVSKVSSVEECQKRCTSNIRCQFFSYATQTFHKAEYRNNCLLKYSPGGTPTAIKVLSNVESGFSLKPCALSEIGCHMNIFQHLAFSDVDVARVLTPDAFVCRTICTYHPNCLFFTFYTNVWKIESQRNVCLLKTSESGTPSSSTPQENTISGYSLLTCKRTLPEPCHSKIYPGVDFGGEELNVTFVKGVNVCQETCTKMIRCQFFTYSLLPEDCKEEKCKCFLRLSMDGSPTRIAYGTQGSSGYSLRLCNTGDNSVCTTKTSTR

- pIC50: 7.96
SMILES: O=C(O)c1nccc(-c2cnc([C@@H]3CC[C@@H]4CC(c5c(-n6cnnn6)ccc(Cl)c5F)=CC(=O)N43)[nH]2)c1F [Compound of formula (II-A), 4-(2-((3S,8aR)-7-(3-chloro-2-fluoro-6-(1H-tetrazol-1-yl)phenyl)-5-oxo-1,2,3,5,8,8a-hexahydroindolizin-3-yl)-1H-imidazol-5-yl)-3-fluoropicolinic acid]
